# Patent US12202790B2, “Sulfonamide derivatives having selective Nox inhibiting activity” (GLUCOX BIOTECH AB, priority 2018, dated 2025)
# Like-named read-outs stand apart in the source and are kept apart here.
# Key:
# hNox4 = hNox4 (Homo sapiens (Human), UniProt Q9NPH5); test: Amplex Red assay of intact Nox4 expressing HEK293 cells; type: cell-based
# Experimental: (§1) HEK293 overexpressing Nox4 (CJ Nox4) cells were purchased from Redoxis, Lund, Sweden. HEK 293 cells expressing Nox5, Nox3 (HEK TRex) and CHO cells expressing Nox1, were a kind gift from Vincent Jaque Center Medical Universitaire, Geneva, Switzerland. Nox2 expressed in isolated neutrophils were isolated from whole blood (human), as previously described (Anvari E, et al., Free Radic Res 2015; 49:1308-1318).
# HEK293 cells (CJ Nox4) were cultured in RPMI 1640 with Glutamax supplemented with FBS (10%), penicillin (100 U/ml) and streptomycin […] at 37° C. in air with 5% CO2. Every third passage 200 µg/ml neomycin were supplied in growth medium as selective agent.
# (§2) Reactive oxygen produced in whole cells or in membrane preparation of Nox1, Nox3, Nox4, Nox5 and xanthine oxidase and glucose oxidase were determined using Amplex Red as detection probe of formed H2O2. Amplex Red (10-acetyl-3,7-dihydroxyphenoxazine) in combination with HRP and co-factors reacts with H2O2 in a 1:1 stoichiometry to form a highly fluorescent resorufin excitated at 544 nm producing emission at 590 nm.
# (§3) Adherent cells (CHO, HEK) were collected by trypsinization, centrifuged, washed with HBSS, counted, and resuspended in HBSS. Cells were seeded in 96-well black flat bottom plates at a density of 50,000-100,000 cells/well. All compounds were dissolved in DMSO and concentrations ranging from 0.003 to 200 μM were tested in Nox cellular assays with a final concentration of DMSO of 1%. Cells were incubated at 37° C. with the compounds for 30 minutes before measurement. Cells expressing Nox1 and Nox2 were activated with the PKC activator PMA (0.1 μM). Nox5 was activated with the Ca2+ ionophore ionomycin (1 μM) and further enforced with PMA. The CJ HEK 293 cells overexpressed Nox4 constitutively. In the HTS screen HEK 293 TRex was used and tetracycline ([…]) was added 18 h before measurement to induce Nox4 expression. Production of hydrogen peroxide by Nox in intact cells was measured using Amplex Red fluorescence as described by Jaquet V, et al., Br J Pharmacol 2011; 164:507-520. Assay reagents including HRP ([…]) and Amplex Red (50 μM) were added to initiate production of hydrogen peroxide. Fluorescence was read in a fluorescence plate reader at 37° C. every minute between 30-60 minutes.
# [1] = Microsomal metabolic stability, mouse; type: in vitro ADME; conditions: pooled liver microsomes, pH 7.4, read-out: Metab. stab, mouse t1/2
# Experimental: (§4) The microsomal metabolic stability assay utilizes pooled human, or animal (mouse) species, liver microsomes with supplemented cofactor (NADPH) to primarily facilitate cytochrome P450 (CYP) reactivity against target compound. Test compound (1 μM incubation concentration) and microsomes (0.5 mg/ml incubation concentration) were diluted in 0.1 M phosphate buffer, pH 7.4, in a volume of 150 μl. The reaction was initiated with addition of NADPH (1 mM). The incubation times were 0, 5, 15, 40 min and the reaction was quenched, at each time point, by addition of 100 μl acetonitrile containing Warfarin as IS. The plate was then sealed, centrifuged and frozen at −20 C until LC-MS/MS analysis.
# [2] = Plasma protein binding, human; type: in vitro ADME; conditions: 10 μM in plasma, equilibrium dialysis 4 h, read-out: fu % human plasma protein
# Experimental: (§5) Example compounds were incubated at 10 μM in plasma and then equilibrium dialysed for 4 h, using a rapid equilibrium device. Protein binding (fu %) was determined by LS/MS as previously described (Anvari E, et al., vide supra).
# DPPH redox assay = test: DPPH redox assay; design: key: The sign “—” stands for “inactive”; conditions: redox activity control
# Experimental: DPPH, a well-known sensitive chemical of monitoring reactions involving radicals described by Xiong Q, et al., Biol Pharm Bull 1996; 19:1580-1585, was used as control to exclude any redox active compound. DPPH was incubated with decreasing concentrations (200-0.003 μM) of compounds of the invention or prior art compound GKT136901 (as a positive control). The plate was kept in the dark for 60 min, after which the absorbance of the solution was measured at 518 nm.
# [3] = Plasma protein binding, mouse; type: in vitro ADME; conditions: 10 μM in plasma, equilibrium dialysis 4 h, read-out: fu % mouse plasma protein
# Experimental: as §5
# [4] = Microsomal metabolic stability, human; type: in vitro ADME; conditions: pooled liver microsomes, pH 7.4, read-out: Metab. stab, human t1/2
# Experimental: as §4
# Nox5 = Nox5 (Homo sapiens (Human), UniProt Q96PH1); test: Amplex Red assay of Nox5 expressing HEK cells; type: cell-based; design: key: The sign “—” stands for “inactive”
# Nox5, sequence (Q96PH1 whole entry): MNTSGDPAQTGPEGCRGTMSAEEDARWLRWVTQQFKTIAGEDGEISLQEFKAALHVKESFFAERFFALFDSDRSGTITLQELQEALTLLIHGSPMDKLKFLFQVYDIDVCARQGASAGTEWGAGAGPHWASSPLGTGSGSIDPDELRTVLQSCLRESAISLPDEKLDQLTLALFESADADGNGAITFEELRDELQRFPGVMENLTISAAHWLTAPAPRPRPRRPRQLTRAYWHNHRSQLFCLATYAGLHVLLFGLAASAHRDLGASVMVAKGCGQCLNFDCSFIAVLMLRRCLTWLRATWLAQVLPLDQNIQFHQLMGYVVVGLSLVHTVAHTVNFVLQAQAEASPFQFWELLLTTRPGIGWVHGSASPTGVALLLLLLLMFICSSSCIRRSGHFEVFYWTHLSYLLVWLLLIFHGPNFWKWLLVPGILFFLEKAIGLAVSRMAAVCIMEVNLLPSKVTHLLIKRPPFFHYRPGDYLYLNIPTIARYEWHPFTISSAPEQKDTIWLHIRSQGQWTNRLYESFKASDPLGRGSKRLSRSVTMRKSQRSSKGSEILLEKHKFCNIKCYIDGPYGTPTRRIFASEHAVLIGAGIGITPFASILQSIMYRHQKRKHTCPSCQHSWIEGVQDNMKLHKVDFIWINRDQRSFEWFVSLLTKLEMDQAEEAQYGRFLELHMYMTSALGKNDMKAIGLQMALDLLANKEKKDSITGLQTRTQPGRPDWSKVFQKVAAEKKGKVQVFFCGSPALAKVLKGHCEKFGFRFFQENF
# Source text: as §1
# HEK293T cells expressing tetracycline-inducible human (Nox3 or Nox4) and HEK293 cells stably expressing human Nox5 were generated as described previously (Serrander et al., 2007a,b). HEK cells were cultured in Dulbecco's modified Eagle medium (DMEM) with 4.5 g/l glucose, supplemented with FBS (10%), penicillin (100 U/ml) and streptomycin […] at 37° C. in air with 5% CO2.
# as §2, §3
# [5] = Determination of chemical stability; type: physicochemical
# Experimental: Test compound was pipetted into an HPLC vial, from 10 mM DMSO, to yield 2 μM final concentration in three separate vials containing buffers with different pH. At reaction start the three different buffers were mixed with isopropanol (1:2, buffer:isopropanol). The buffers used were: pH 2 (H3PO4/KH2PO4 10 mM), pH 7.4 (KH2PO4/K2HPO4 10 mM) and pH 10 (Glycine/NaOH 10 mM). Immediately (<1 minute) after buffer or buffer/isopropanol addition, a 100 μl aliquot was added to a separate plate containing 100 μl acetonitrile:H2O (60:40) and Warfarin (internal standard, IS), sealed and frozen at −20° C. This test was made for 2 h and 20 h. Analysis was performed on a XEVO TQ mass spectrometer coupled to an Acquity UPLC system in ESI^+MRM mode, separation on a BEH C18 2×50 mm column.
# Nox1 = Nox1 (Homo sapiens (Human), UniProt Q9Y5S8); test: Amplex Red assay of Nox1 expressing CHO cells; type: cell-based; design: key to IC50 Nox1: The sign “—” stands for “inactive”
# Nox1, sequence (Q9Y5S8 whole entry): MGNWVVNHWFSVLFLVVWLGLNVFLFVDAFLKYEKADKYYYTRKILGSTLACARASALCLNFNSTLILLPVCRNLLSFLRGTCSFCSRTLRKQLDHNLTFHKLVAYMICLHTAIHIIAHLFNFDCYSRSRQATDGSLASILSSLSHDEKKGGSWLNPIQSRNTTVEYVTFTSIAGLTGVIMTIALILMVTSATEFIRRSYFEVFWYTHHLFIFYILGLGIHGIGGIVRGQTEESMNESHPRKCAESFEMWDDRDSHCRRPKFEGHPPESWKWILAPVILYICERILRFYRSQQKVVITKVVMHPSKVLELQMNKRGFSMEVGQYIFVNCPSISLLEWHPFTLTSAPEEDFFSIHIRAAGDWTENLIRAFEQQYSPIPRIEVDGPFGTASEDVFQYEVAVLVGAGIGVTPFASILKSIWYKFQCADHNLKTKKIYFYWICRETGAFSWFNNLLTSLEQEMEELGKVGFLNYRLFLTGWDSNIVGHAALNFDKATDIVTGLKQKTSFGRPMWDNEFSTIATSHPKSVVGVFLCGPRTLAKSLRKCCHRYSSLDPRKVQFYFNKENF
# Nox1, sequence (P13498 2-195 partner): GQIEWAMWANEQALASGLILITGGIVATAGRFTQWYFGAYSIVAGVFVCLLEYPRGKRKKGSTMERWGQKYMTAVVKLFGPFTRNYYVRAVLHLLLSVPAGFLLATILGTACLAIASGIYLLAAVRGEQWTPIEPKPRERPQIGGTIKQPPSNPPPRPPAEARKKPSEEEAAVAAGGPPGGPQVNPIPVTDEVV
# Experimental: as §1
# CHO cells expressing Nox1 were cultured in DMEM 12 medium (DMEM/F12) supplemented with FBS (10%), penicillin (100 U/ml) and streptomycin (100 μg/ml) at 37° C. in air with 5% CO2.
# as §2, §3
# [6] = read-out: IC50 on hNox4 in recombinant cells
# hNox4, sequence (Q9NPH5 whole entry): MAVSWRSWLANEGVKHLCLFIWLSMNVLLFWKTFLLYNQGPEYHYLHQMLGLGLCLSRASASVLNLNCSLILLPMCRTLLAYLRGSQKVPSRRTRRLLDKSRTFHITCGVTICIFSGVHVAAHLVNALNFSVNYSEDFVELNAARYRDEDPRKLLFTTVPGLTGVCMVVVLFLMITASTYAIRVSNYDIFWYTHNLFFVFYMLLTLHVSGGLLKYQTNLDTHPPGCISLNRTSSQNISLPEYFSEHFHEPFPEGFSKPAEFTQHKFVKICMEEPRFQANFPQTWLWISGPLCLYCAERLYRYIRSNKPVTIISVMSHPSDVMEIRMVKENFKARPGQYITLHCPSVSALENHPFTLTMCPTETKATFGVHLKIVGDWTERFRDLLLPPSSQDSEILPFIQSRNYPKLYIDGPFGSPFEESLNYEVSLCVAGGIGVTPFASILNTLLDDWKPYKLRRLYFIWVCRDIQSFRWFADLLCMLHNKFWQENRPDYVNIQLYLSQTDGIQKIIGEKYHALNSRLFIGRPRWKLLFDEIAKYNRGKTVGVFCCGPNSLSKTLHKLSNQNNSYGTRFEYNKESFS
# hNox4, sequence (P13498 2-195 partner): as the sequence (P13498 2-195 partner) above
IC50 (hNox4; read-out: IC50 Nox4) [nM],half-life at 1 μM [1] [min],"fraction unbound at 4 h, 10 μM [2]",IC50 DPPH (DPPH redox assay),"fraction unbound at 4 h, 10 μM [3]",half-life at 1 μM [4] [min],IC50 Nox5 (Nox5),Chem. stab. pH 7.4 [5],IC50 Nox1 (Nox1),Compound,IC50 (hNox4; [6]) [nM]
1700,6 to 20,0.0002,—,0.0002,11 to 13,—,stable,—,"Cc1ccccc1C(F)CNS(=O)(=O)c1c(Cl)cc(Br)cc1Cl (racemic) [Example 35, 4-bromo-2,6-dichloro-N-[2-fluoro-2-(2-methylphenyl)ethyl]benzene-1-sulfonamide]",
800,2 to 4,0.011,—,0.0056,6 to 10,—,stable,—,"Cc1cc(C)c(S(=O)(=O)NCCc2ccccc2O)c(C)c1 [Example 37, N-[2-(2-hydroxyphenyl)ethyl]-2,4,6-trimethylbenzene-1-sulfonamide]",
300,2 to 4,0.0062,—,0.0056,9 to 11,—,stable,—,"O=S(=O)(NCCc1ccccc1O)c1c(Cl)cc(Br)cc1Cl [Example 38, 4-bromo-2,6-dichloro-N-[2-(2-hydroxyphenyl)ethyl]benzenesulfonamide]",
2400,7,0.015,—,0.025,36,—,stable,—,"Cc1cc(Cl)c(S(=O)(=O)NCCc2ccccc2O)c(C)c1O [Example 44, 6-chloro-3-hydroxy-N-[2-(2-hydroxyphenyl)ethyl]-2,4-dimethyl-benzenesulfonamide]",
300,2,0.0026,—,0.0021,2,—,stable,—,"COc1cc(C)c(S(=O)(=O)NCCc2ccccc2Cl)c(C)c1 [Example 46, N-[2-(2-chlorophenyl)ethyl]-4-methoxy-2,6-dimethyl-benzenesulfonamide]",
1600,1,0.03,—,0.017,14,—,stable,—,"COc1cc(C)c(S(=O)(=O)NCCc2ccccc2O)c(C)c1 [Example 47, N-[2-(2-hydroxyphenyl)ethyl]-4-methoxy-2,6-dimethyl-benzenesulfonamide]",
22000,16,0.011,—,0.005,69,—,stable,—,"Cc1cc(O)cc(C)c1S(=O)(=O)NCCc1ccccc1O [Example 48, 4-hydroxy-N-[2-(2-hydroxyphenyl)ethyl]-2,6-dimethyl-benzenesulfonamide]",

Compound,IC50 (hNox4; read-out: IC50 Nox4) [nM],half-life at 1 μM [1] [min],"fraction unbound at 4 h, 10 μM [2]",IC50 DPPH (DPPH redox assay),"fraction unbound at 4 h, 10 μM [3]",half-life at 1 μM [4] [min],IC50 Nox5 (Nox5),Chem. stab. pH 7.4 [5],IC50 Nox1 (Nox1),IC50 (hNox4; [6]) [nM]
"Cc1ccccc1CCNS(=O)(=O)c1c(C)cccc1Cl [Example 11, 2-chloro-6-methyl-N-[2-(2-methylphenyl)ethyl]benzene-1-sulfonamide]",2400,,,—,,,—,,—,2400
"Cc1ccccc1CCNS(=O)(=O)c1c(Cl)cc(Br)cc1Cl [Example 17, 4-bromo-2,6-dichloro-N-[2-(2-methylphenyl)ethyl]benzene-1-sulfonamide]",270,2 to 3,0.0002,—,0.0004,3 to 4,—,stable,—,270
"O=S(=O)(NCCc1ccccc1Cl)c1c(Cl)cc(C2CC2)cc1Cl [Example 26, 2,6-dichloro-N-[2-(2-chlorophenyl)ethyl]-4-cyclopropylbenzene-1-sulfonamide]",360,,,—,,,—,,—,360
